Assays:
[1] = test system: DOPR-induced elevation of MABP; assay: Effect on DOPR-induced blood pressure (MABP) elevation in anesthetized rats; format: in vivo, Sprague-Dawley rats
Procedure: Key peripheral 5-HT2A receptor antagonists were tested for their ability to block the increases in blood pressure (BP) induced by a maximally effective dose (in terms of HTR response) of 2,5-dimethoxy-4-propylamphetamine (DOPR) in anesthetized rats, with the key results summarized in FIGS. 5-9. FIG. 5 depicts in a bar graph the effect of xylamidine pre-treatment on DOPR-induced elevation of MABP in the rat. The indicated doses of xylamidine or vehicle were administered SC, followed 10 minutes later by DOPR (0.32 mg/kg, SC), and mean percent change in MABP relative to the baseline recording for each group was calculated for the 20 minutes immediately after DOPR administration (10-30 min after administration of xylamidine). *p<0.05, **p<0.01 vs. vehicle using Dunnett's multiple comparison test. FIG. 6 depicts in a bar graph the effect of BW501C67 pre-treatment on DOPR-induced elevation of MABP in the rat. The indicated doses of BW501C67 or vehicle were administered SC, followed 10 minutes later by DOPR (0.32mg/kg, SC), and mean percent change in MABP relative to the baseline recording for each group was calculated for the 20 minutes immediately after DOPR administration (10-30 min after administration of BW501C67). *p<0.05 vs. vehicle using Dunnett's multiple comparison test. FIG. 7 depicts in a bar graph the effect of xylamidine pre-treatment on DOPR-induced elevation of MABP in the rat. The indicated doses of xylamidine or vehicle were administered SC. followed 10 minutes later by DOPR (0.32 mg/kg, SC), and mean percent change in MABP relative to the baseline recording for each group was calculated for the period 45-55 minutes after DOPR administration (55-65 min after administration of xylamidine). *p<0.05, ***p<0.001 vs. vehicle using Dunnett's multiple comparison test. FIG. 8 depicts in a bar graph the effect of BW501C67pre-treatment on DOPR-induced elevation of MABP in the rat. The indicated doses of BW501C67or vehicle were administered SC, followed 10 minutes later by DOPR (0.32 mg/kg, SC), and mean percent change in MABP relative to the baseline recording for each group was calculated for the period 45-55 minutes after DOPR administration (55-65 min after administration of BW501C67). *p<0.05, **p<0.01, ***p<0.001 vs. vehicle using Dunnett's multiple comparison test. FIG. 9 depicts in a bar graph the effect of Compound 14a pre-treatment on DOPR-induced elevation of MABP in the rat. The indicated doses of Compound 14a or vehicle were administered SC, followed 10 minutes later by DOPR (0.32 mg/kg, SC), and mean percent change in MABP relative to the baseline recording for each group was calculated for the 20 minutes immediately after DOPR administration (10-30 min after administration of Compound 14a).
Animals. Adult male Sprague-Dawley rats aged 8 weeks (body weight ˜270 g) were used in these experiments. Animals were pair housed under controlled temperatures and 12-hour light/dark cycles (lights on between 07:00-19:00 h), with ad libitum food and water. The protocol was approved by the Eurofins Advinus Institutional Animal Care and Use Committee. […]
Drugs and Drug administration. […] The 5-HT2A receptor agonist DOPR was then administered at 1 dose (0.32 mg/kg. SC, in saline, calculated based on the free base) to all animals 10 min after pretreatment with the test peripheral antagonist or vehicle (saline). […]

[2] = Metabolic stability in rat liver microsomes; format: in vitro ADME; conditions: for half-life at 1 μM / microsomal CLint at 1 μM: both sexes, rat, microsomes, pH 7.4
Procedure: RLM Stability. Pooled RLM from adult male and female donors (Xenotech R1000) were used. Microsomal incubations were carried out in multi-well plates. Liver microsomal incubation medium consisted of PBS (100 mM, pH 7.4), MgCl2 (1 mM), and NADPH (1 mM), with 0.50 mg of liver microsomal protein per mL. Control incubations were performed by replacing the NADPH-cofactor system with PBS. Test compounds (1 μM, final solvent concentration 1.0%) were incubated with microsomes at 37° C. with constant shaking. Six time points over 60 minutes were analyzed, with 60 μL aliquots of the reaction mixture being drawn at each time point. The reaction aliquots were stopped by adding 180 μL of cold (4° C.) acetonitrile containing 200 ng/mL tolbutamide and 200 ng/ml labetalol as internal standards (IS), followed by shaking for 10 minutes, and then protein sedimentation by centrifugation at 4,000 rpm for 20 minutes at 4° C. Supernatant samples (80 μL) were diluted with water (240 μL) and analyzed for parent compound remaining using a fit-for-purpose liquid chromatography-tandem mass spectrometry (LC-MS/MS) method.
Data Analysis. The elimination constant (kel), half-life (t1/2), and intrinsic clearance (CLint) were determined in a plot of […] versus time, using linear regression analysis.

[3] = 10-30 min after antagonist administration (0.01 to 10 mg/kg SC), DOPR 0.32 mg/kg SC
[4] = 55-65 min after antagonist administration (45-55 min after DOPR 0.32 mg/kg SC)
[5] = RLM, 1 μM, 0.50 mg protein per mL, NADPH

Row | SMILES | Attenuation of DOPR-induced elevation of MABP [1, 3] | Attenuation of DOPR-induced elevation of MABP [1, 4] | Metabolic stability in RLM [2] | Clint [2, 5] | t1/2 [2, 5] | half-life at 1 μM [2, 5] | microsomal CLint at 1 μM [2, 5]
1 | COc1cccc(OC(C)CNC(=N)Cc2cccc(C)c2)c1.O=C(O)C(F)(F)F (centres unmarked) [xylamidine, N-(2-(3-methoxyphenoxy)propyl)-2-(m-tolyl) acetimidamide trifluoroacetate] | significantly attenuated | showing activity at lower doses | poor metabolic stability | 709.1 µL/min/mg | 2.0 min |  | 
2 | CC(C)COc1ccc(CNC(=O)N(Cc2ccc(F)cc2)C2CCN(C(=O)CC[C@H](N)C(=O)O)CC2)cc1 [Compound 14a, (S)-2-amino-5-(4-(1-(4-fluorobenzyl)-3-(4-isobutoxybenzyl)ureido)piperidin-1-yl)-5-oxopentanoic acid] | failed to significantly attenuate |  | highly stable |  |  | > 145 min | < 9.6 µL/min/mg
3 | CC(CNC(=N)CNc1ccccc1)Oc1cccc(Cl)c1.O=CO (centres unmarked) [BW501C67, N-(2-(3-chlorophenoxy)propyl)-2-(phenylamino)acetimidamide formate] | significantly attenuated | showing activity at lower doses | poor metabolic stability |  |  | 2.1 min | 658 µL/min/mg

From patent publication US20240390301A1, “COMBINATIONS OF PERIPHERAL 5-HT2A RECEPTOR ANTAGONISTS AND CENTRAL 5-HT2A RECEPTOR AGONISTS” (priority 2021, published 2024)
